In patent US6756359B2, “C12 modified erythromycin macrolides and ketolides having antibacterial activity” (Chiron Corporation, priority 2001, dated 2004) one finds MIC data, which are given here for three compounds.

Common to all, as to experiment: Antibacterial activity in vitro, MIC by broth microdilution
On the technique in general: Dilution methods test growth across graded concentrations, often in twofold steps.

One assay has as its system S. pneumoniae Stpn_49619. Type of assay: cell-based, Streptococcus pneumoniae. To be noted: Table 5, Strain ID F: S. pneumoniae Stpn_49619. The procedure: (§1) Representative compounds of the present invention were assayed in vitro for antibacterial activity against the bacterial isolates listed in Table 1 as follows:
(§2) The bacterial isolates listed in Table 1 were cultivated from −70° C. frozen stocks by two consecutive overnight passages (P1, P2) at 35° C. on 5% blood agar (Remel, Lenexa, Kans.). Chocolate agar (Remel) is used for Haemophilus influenzae. H. influenzae and Streptococcus pneumoniae are incubated in 5-10% CO2.
(§3) To determine the amount of solvent to be used to give the desired final concentration, the formula “weight obtained in mg/final concentration in mg/mL” will be used. It will give the amount of solvent in mL needed to be added to give the desired concentration. For example, if 2.5 mg/mL is the desired concentration and the weight of compound is 13.7 mg, then the amount of solvent to be added is 3.94 mL (13.7 mg/2.5 mg/mL=3.94 mLs). Methanol is used as the solvent to dissolve the test compounds. Further dilution of stock is done in sterile, deioinzed water. Drug stocks are kept frozen at −70° C., protected from light.
(§4) MICs are determined by the broth microdilution method in accordance with the NCCLS guidelines. In brief, organism suspensions are adjusted to a 0.5 McFarland standard to yield a final inoculum between 3×10^5 and 7×10^5 CFU/mL. Drug dilutions and inocula are made in sterile, cation adjusted Mueller-Hinton Broth (CAMHB) (Remel) for all but S. pneumoniae [CAMHB with 2-5% lysed horse blood (Remel)] and H. influenzae [Haemophilus Test Medium (Remel)]. An inoculum volume of 100 μl is added to wells containing 100 μl of broth with 2-fold serial dilutions of drug. All inoculated microdilution trays are incubated in ambient air at 35° C. for 18-24 hours, except for S. pneumoniae, and H. influenzae (both at 5-10% CO2).
(§5) Following appropriate incubation, the MIC is determined and the MIC is defined as the lowest concentration of the drug that prevented visible growth.

Assay [1] relates to S. pneumoniae Stpn_Erm S 4297. Type of assay: cell-based, Streptococcus pneumoniae. To be noted: Table 5, Strain ID J: S. pneumoniae Stpn_Erm S 4297; unit assumed. On the procedure: as §1, §2, §3, §4, §5
Assay [2] relates to S. pneumoniae Stpn_280-962 Pen S. It counts as cell-based, Streptococcus pneumoniae. To be noted: Table 5, Strain ID H: S. pneumoniae Stpn_280-962. The procedure:
as §1, §2, §3, §4, §5

Assay [3] relates to S. pneumoniae Stpn_Mef 5654. It counts as cell-based, Streptococcus pneumoniae. To be noted: Table 5, Strain ID K: S. pneumoniae Stpn_Mef 5654; unit assumed. On the procedure:
as §1, §2, §3, §4, §5

In assay [4] the test system is S. pneumoniae Stpn_297-749 Pen R. It counts as cell-based, Streptococcus pneumoniae. To be noted: Table 5, Strain ID G: S. pneumoniae Stpn_297-749. On the procedure: as §1, §2, §3, §4, §5
Assay [5] deals with S. pneumoniae Stpn_Mef S 3427. Type of assay: cell-based, Streptococcus pneumoniae. To be noted: Table 5, Strain ID L: S. pneumoniae Stpn_Mef S 3427. On the procedure:
as §1, §2, §3, §4, §5

Assay [6] deals with S. pneumoniae Stpn_Erm 6849. It counts as cell-based, Streptococcus pneumoniae. The note with it: Table 5, Strain ID I: S. pneumoniae Stpn_Erm 6849; unit assumed. The procedure: as §1, §2, §3, §4, §5
The test system of another assay is H. influenzae Hain_49247. It counts as cell-based, Haemophilus influenzae. The note with it: Table 5, Strain ID M: H. influenzae Hain_49247; unit assumed. The procedure:
as §1, §2, §3, §4, §5

Assay [7] deals with S. epidermidis Step_f50654 Pen S. It counts as cell-based. To be noted: Table 5, Strain ID C: S. epidermidis Step_f50654; unit assumed. On the procedure:
as §1, §2, §3, §4, §5

A further assay has as its system E. faecalis Enfa_29212. It counts as cell-based. To be noted: Table 5, Strain ID D: E. faecalis Enfa_29212; unit assumed. The procedure:
as §1, §2, §3, §4, §5

In a further assay the test system is S. aureus Stau_29213. It counts as cell-based. The note with it: Table 5, Strain ID A: S. aureus Stau_29213; unit assumed. On the procedure: as §1, §2, §3, §4, §5
In another assay the test system is S. pyogenes Stpy_8668. Type of assay: cell-based. To be noted: Table 5, Strain ID E: S. pyogenes Stpy_8668. The procedure: as §1, §2, §3, §4, §5
Assay [8] concerns S. epidermidis Step_14990. Type of assay: cell-based. To be noted: Table 5, Strain ID B: S. epidermidis Step_14990; unit assumed. The procedure:
as §1, §2, §3, §4, §5

Values after ≈ are worked out from the molar mass of the structure shown.

`C/C=C/[C@]12OC(=O)N(CCCCn3cnc(-c4cccnc4)c3)[C@@H]1[C@@H](C)C(=O)[C@H](C)C[C@](C)(OC)[C@H](O[C@@H]1O[C@H](C)C[C@H](N(C)C)[C@H]1O)[C@@H](C)C(=O)[C@@H](C)C(=O)O[C@@H]2CC` [65(2), (3aS,4R,7R,9R,10R,11S,13R,15R,15aR)-4-ethyl-11-methoxy-7,9,11,13,15-pentamethyl-2,6,8,14-tetraoxo-3a-[(1E)-prop-1-enyl]-1-[4-(4-pyridin-3-yl-1H-imidazol-1-yl)butyl]tetradecahydro-2H-oxacyclotetradecino[4,3-d][1,3]oxazol-10-yl 3,4,6-trideoxy-3-(dimethylamino)-D-xylo-hexopyranoside]: the MIC entry against S. pneumoniae Stpn_49619 is “≦0.05”; in assay [1], 0.4 µg/mL (≈ 0.477 µM); in [2] it was “≦0.05”; in assay [3] it was 0.78 µg/mL (≈ 0.931 µM); in assay [4], “≦0.05”; in assay [5] (unit assumed), 0.2 µg/mL (≈ 0.239 µM). Besides, the MIC in [6] stood at 0.78 µg/mL (≈ 0.931 µM); in the assay with H. influenzae Hain_49247 it was 25 µg/mL (≈ 29.8 µM); in assay [7], 3.13 µg/mL (≈ 3.73 µM); in the assay with E. faecalis Enfa_29212 it was 0.78 µg/mL (≈ 0.931 µM); against S. aureus Stau_29213 it was 3.13 µg/mL (≈ 3.73 µM); with S. pyogenes Stpy_8668 (unit assumed) it was 0.2 µg/mL (≈ 0.239 µM). In assay [8], this compound yielded an MIC of 3.13 µg/mL (≈ 3.73 µM).

As for `CC[C@H]1OC(=O)[C@H](C)C(=O)[C@H](C)[C@@H](OC2O[C@H](C)C[C@H](N(C)C)[C@H]2O)[C@@](C)(OC)C[C@@H](C)C(=O)[C@H](C)[C@H]2N(CCCCn3cnc4cccnc43)C(=O)O[C@]12CC` (stereo partly drawn) [Example 14, (3aS,4R,7R,9R,10R,11S,13R,15R,15aR)-3a,4-diethyl-1-[4-(3H-imidazo[4,5-b]pyridin-3-yl)butyl]-11-methoxy-7,9,11,13,15-pentamethyl-2,6,8,14-tetraoxotetradecahydro-2H-oxacyclotetradecino[4,3-d][1,3]oxazol-10-yl 3,4,6-trideoxy-3-(dimethylamino)-D-xylo-hexopyranoside], the MIC result was “≦0.05” against S. pneumoniae Stpn_49619; 0.1 µg/mL (≈ 0.125 µM) in assay [1]; “≦0.05” in [2]; 0.4 µg/mL (≈ 0.5 µM) in assay [3]; “≦0.05” in assay [4]; “≦0.05” in assay [5]. Further, the MIC in [6] is 0.4 µg/mL (≈ 0.5 µM); against H. influenzae Hain_49247 it was 3.13 µg/mL (≈ 3.91 µM); in [7], 0.2 µg/mL (≈ 0.25 µM); against E. faecalis Enfa_29212, 0.1 µg/mL (≈ 0.125 µM); with S. aureus Stau_29213, 0.4 µg/mL (≈ 0.5 µM); against S. pyogenes Stpy_8668 it was “≦0.05”. The MIC in assay [8] turned out to be 0.2 µg/mL (≈ 0.25 µM).

For `CC[C@H]1OC(=O)[C@H](C)C(=O)[C@H](C)[C@@H](OC2O[C@H](C)C[C@H](N(C)C)[C@H]2O)[C@@](C)(OC)C[C@@H](C)C(=O)[C@H](C)[C@H]2N(CCCCc3ccnc4ccccc34)C(=O)O[C@]12CC` (stereo partly drawn) [Example 15, (3aS,4R,7R,9R,10R,11S,13R,15R,15aR)-3a,4-diethyl-11-methoxy-7,9,11,13,15-pentamethyl-2,6,8,14-tetraoxo-1-(4-quinolin-4-ylbutyl)tetradecahydro-2H-oxacyclotetradecino[4,3-d][1,3]oxazol-10-yl 3,4,6-trideoxy-3-(dimethylamino)-D-xylo-hexopyranoside], the MIC entry in the assay on S. pneumoniae Stpn_49619 was “≦0.05”; in assay [1], 0.1 µg/mL (≈ 0.123 µM); in assay [2], “≦0.05”; in [3], 0.2 µg/mL (≈ 0.247 µM); in [4], “≦0.05”; in assay [5], “≦0.05”. The MIC was 1.56 µg/mL (≈ 1.93 µM) in assay [6]; 3.13 µg/mL (≈ 3.86 µM) against H. influenzae Hain_49247; 0.4 µg/mL (≈ 0.494 µM) in assay [7]; 0.1 µg/mL (≈ 0.123 µM) against E. faecalis Enfa_29212; 0.4 µg/mL (≈ 0.494 µM) in the assay on S. aureus Stau_29213; “≦0.05” against S. pyogenes Stpy_8668. For the same compound, in [8], the MIC stood at 0.2 µg/mL (≈ 0.247 µM).
